The MIC is the least concentration at which growth counts as inhibited. One may read the IC50 as the concentration that inhibits the measured activity by half.

In brackets after ≈: the same amount, converted by molar mass.

The test system of data set [1] is Candida albicans (ATCC 10231). Description: Antimicrobial assay, broth microdilution, C. albicans. Type of data set: cell-based. On the set-up: key to MIC C. albicans: -: no activity. The note with it: MIC = 80% growth inhibition, tested 400 to 0.39 µg/mL; for MIC C. albicans: 24 h at 37 °C; for MIC: Candida albicans, ATCC10231, 24 h at 37 °C. The protocol: (§1) Meanwhile, the antimicrobial assays of compounds 1–9 were screened against Staphylococcus aureus (ATCC 25923), Escherichia coli (ATCC 25922) and Candida albicans (ATCC 10231).
(§2) The antimicrobial assays against S. aureus, E. coli and C. albicans were carried out by the broth microdilution method. The tested organisms were incubated overnight with shaking (200 rpm) in thermostatic oscillation incubator (37 °C) in Mueller Hinton broth (MHB) and liquid Sabourand medium for the bacteria and the fungus, respectively. The microbial inoculum density was adjusted to 1 × 10^6 cfu/mL with 0.9% saline solution by comparison with a MacFarland standard. The tested substances and positive drugs were dissolved in methanol to an initial concentration of 40 mg/mL. 4 μL of initial compound solution and 196 μL of MHB (liquid Sabourand medium for fungus) were added into the first well and mixed evenly. Then 100 μL of solution from the first hole, along with 2 μL of methanol and 98 μL of MHB (liquid Sabourand medium for fungus), were transferred to the second hole, and then shaken up as mixture uniform. The repetitive operation was performed to the eleventh one, from which 100 μL of solution well was discarded. Then, 100 μL of microbial suspension was added to the solutions in 96-well to achieve a final volume of 200 µL and final sample concentrations from 400 to 0.39 µg/mL. The blank well was also incubated with only medium under the same conditions. All experiments were carried out in triplicate and with chloramphenicol and ketoconazole as the positive controls. Optical density measurement for bacteria and fungus was recorded at 620 nm after incubation at 37 °C for 12 and 24 h, respectively. The minimal inhibitory concentration (MIC) was defined as the concentration at which the growth was inhibited 80% of the tested microorganisms.
Background: Broth dilution looks for growth in wells or tubes with falling amounts of substance.

In data set [2] the test system is Escherichia coli (ATCC 25922). Description: Antimicrobial assay, broth microdilution, E. coli. The data set is classed as cell-based. On the set-up: key to MIC E. coli: -: no activity. The note with it: MIC = 80% growth inhibition, tested 400 to 0.39 µg/mL; for MIC: Escherichia coli, ATCC25922, 12 h at 37 °C; for MIC E. coli: 12 h at 37 °C. As to the method:
as §1, §2

In data set [3] the test system is Staphylococcus aureus (ATCC 25923). Description: Antimicrobial assay, broth microdilution, S. aureus. To be noted: MIC = 80% growth inhibition, tested 400 to 0.39 µg/mL; for MIC: Staphylococcus aureus, ATCC25923, 12 h at 37 °C. Set-up: key to MIC S. aureus: -: no activity. The data set is classed as cell-based. The protocol:
as §1, §2

Data set [4] can be described thus: in vitro. To be noted: human. The protocol:
(§3) The cytotoxic activity against HL60, A549 and HL-7702 cell lines was performed by the MTT method as previously described.

For data set [5], the system named is human promyelocytic leukemia (HL60) cell line. Description: cells. To be noted: HL-60, read-out: IC50 cytotoxicity against HL60. The protocol: as §3
Data set [6] deals with human lung adenocarcinoma (A549) cell line. Description: Cytotoxicity by the MTT method, A549. The note with it: A549, read-out: IC50 cytotoxicity against A549. As to the method: as §3
(In general: Tetrazolium dyes change colour on reduction, which living cells bring about.)

With `COC(CO)C1(O)OC(=O)C=C1C` (stereo not drawn) [Compound 2, Aspersclerolide B], the “MIC C. albicans” value in data set [1] is listed as “-”. The MIC in data set [2] and in data set [3] was 200 µg/mL (≈ 1060 µM) in each case.
Take `C=C(OC)C1(O)OC(=O)C=C1C` (stereo not drawn) [Compound 7, spersclerotioron G]: in data set [1], the “MIC C. albicans” value is on record as “-”. In data set [2], the “MIC E. coli” value is listed as “-”. In data set [3], the MIC is over 400 µg/mL.
Turning to `COC1=CC(=O)OC1(O)C(C)Cc1c(C)cc(O)cc1O` (stereo not drawn) [Compound 3, Aspersclerolide C], the IC50 amounted to 22.8 µM in data set [4], 12.1 µM in data set [5] and 16.7 µM in data set [6]. Further, the “MIC C. albicans” value in data set [1] is “-”. Moreover, the MIC in data set [2] and in data set [3] was 200 µg/mL (≈ 680 µM) throughout.
On to `COC1=CC(=O)OC1(O)C(C)C` (stereo not drawn) [Compound 9, dihydropenicillic acid], for which the “MIC C. albicans” value in data set [1] is recorded as “-”. Also, the “MIC E. coli” value in data set [2] is reported as “-”. The MIC in data set [3] is over 400 µg/mL.
Consider `COC1=CC(=O)OC12Oc1cc(O)cc(C)c1CC2C` (racemic) [Compound 4, (±)-Aspersclerolide D], for which, in data set [1], the “MIC C. albicans” value is given as “-”. Moreover, the MIC in data set [2] and in data set [3] was over 400 µg/mL throughout.
Take `COC1=CC(=O)C(C)C1O` (racemic) [Compound 5, (±)-4-hydroxy-3-methoxy-5-methyl-2-cyclopentenone]: the “MIC C. albicans” value in data set [1] is listed as “-”. Further, the “MIC E. coli” value in data set [2] is reported as “-”. Besides, in data set [3] (12 h at 37 °C), the “MIC S. aureus” value is given as “-”.
As for `COc1cccc2c1C(=O)c1c(O)c3c(c(O)c1C2=O)C[C@@](O)(C(=O)CO)C[C@@H]3O[C@H]1C[C@H](N)[C@H](O)[C@H](C)O1` [doxorubicin, reference compound], the IC50 in data set [4] (HL-7702 cells (human normal liver, non-cancer)) was 8.3 µM; in data set [5] it was 0.85 µM; in data set [6], 1.5 µM.
`O=C(N[C@H](CO)[C@H](O)c1ccc([N+](=O)[O-])cc1)C(Cl)Cl` [chloramphenicol, reference compound]: the MIC in data set [2] was determined as 6.25 µg/mL (≈ 19.3 µM); in data set [3] it was 3.12 µg/mL (≈ 9.66 µM).
For `COC1=CC(=O)OC1(O)C(C)CO` (stereo not drawn) [Compound 6, 6-hydroxyl dihydropenicillic acid], the “MIC C. albicans” value in data set [1] was “-”. Moreover, the “MIC E. coli” value in data set [2] is given as “-”. Also, the MIC in data set [3] is over 400 µg/mL.
Take `CC(=O)C1(O)OC(=O)C=C1C` (stereo not drawn) [Compound 1, Aspersclerolide A]: the IC50 in data set [4] was found to be 17.6 µM; in data set [5] it was 6.5 µM; in data set [6], 8.9 µM. In data set [1], the “MIC C. albicans” value is on record as “-”. Further, the MIC in data set [2] and in data set [3] was over 400 µg/mL in each case.
As for `C=C(C)C1(O)OC(=O)C=C1OC` (stereo not drawn) [Compound 8, penicillic acid], the figures for the MIC in data set [1], in data set [2] and in data set [3] were 50 µg/mL (≈ 294 µM), 12.5 µg/mL (≈ 73.5 µM) and 6.25 µg/mL (≈ 36.7 µM), respectively.
`CC(=O)N1CCN(c2ccc(OCC3COC(Cn4ccnc4)(c4ccc(Cl)cc4Cl)O3)cc2)CC1` (stereo not drawn) [ketoconazole, reference compound] returned an MIC in data set [1] of 6.25 µg/mL (≈ 11.8 µM).

The values above are taken from article PMC6680918, “New Butenolides and Cyclopentenones from Saline Soil-Derived Fungus Aspergillus Sclerotiorum” (Molecules, 2019).
